# Measured values as given in patent US20140249076A1, “AMYLIN-CALCITONIN CHIMERIC PEPTIDES CONJUGATED TO DURATION ENHANCING MOIETIES” (AMYLIN PHARMACEUTICALS, LLC, priority 2011, published 2014).
# Numbered stars: 1 amine (or outer) side, 2 acyl side, 3 side chain; on linkers, the order of the positions; unused ones are H or OH. Bridge positions count the residues as written; N and C are the ends. Side chains are listed from the residue outwards. Peptide text beside a SMILES is read from it. * marks the point of attachment. γGlu = O=C(O)[C@H](CCC(=O)[*:2])N[*:1]; Palmitoyl = CCCCCCCCCCCCCCCC(=O)*
# Tested on: mice
# Test: Forced swim test (FST)
# Format: in vivo, mouse
# Details: qualitative result; 0.03 mg/kg dosing, as in Example 8
# Text: The forced swim test (FST) is a commonly used paradigm to evaluate antidepressant activity of drugs. The FST is based on measurement of the animal's floating time in a tank filled with water. When rats or mice are forced to swim in a deep cylinder with tepid water they become nearly immobile and cease trying to escape. Without wishing to be bound by any theory, it is believe that this characteristic immobile posture reflects a depressive-like state which is readily influenced by a wide variety of antidepressants. See, e.g., Hedou et al., 2001, Pharmacol, Biochem. Behay. 70:65-76; Chaki et al., 2003, J. Pharmacol. Exp. Ther. 304:818-826; Porsolt et al., 1977, Nature 266:730-732. Antidepressants decrease the immobility time in the FST. Vehicle or test compound can be delivered continuously for two weeks to mice by subcutaneously implanted osmotic pumps prior to the FST. Indeed, any route of administration (e.g., intraperitoneal, subcutaneous, oral and the like) is available. Mice can be placed in the water tank for assessment of climbing, swimming, and immobility over a defined trial session, typically 6 minutes. Test session parameters for mice and rats are typically different, as known in the art.
# The forced swim test (FST) is a commonly used paradigm to evaluate antidepressant activity of drugs. […] Specifically, vehicle or test compound was delivered continuously for two weeks to mice by subcutaneously implanted osmotic pumps prior to the FST assay, by methods well known in the art. On day one, the patients were introduced into the tank for a 15 minute pre-swim session. On day two, the patients were placed back into the water tank for assessment of climbing, swimming, and immobility over a 6 minute trial session. The rate of compound infusion was 0.03 mg/kg/day.
row,Structure (SMILES),"FST Assay, 0.03 mg/kg"
1,"CCCCCCCCCCCCCCCC(=O)N[C@@H](CCC(=O)NCCCC[C@H](NC(=O)[C@H](CCC(N)=O)NC(=O)[C@H](CC(C)C)NC(=O)[C@H](C)NC(=O)[C@@H]1CSSC[C@H](NC(=O)[C@@H](N)CCCCN)C(=O)N[C@@H](CC(N)=O)C(=O)N[C@@H]([C@@H](C)O)C(=O)N[C@@H](C)C(=O)N[C@@H]([C@@H](C)O)C(=O)N1)C(=O)N[C@@H](CC(C)C)C(=O)N[C@@H](C)C(=O)N[C@@H](CCC(N)=O)C(=O)N[C@@H](CCC(=O)O)C(=O)N[C@@H](CC(C)C)C(=O)N[C@@H](Cc1c[nH]cn1)C(=O)N[C@@H](CCCNC(=N)N)C(=O)N[C@@H](CC(C)C)C(=O)N[C@@H](CCC(N)=O)C(=O)N[C@H](C(=O)N[C@@H](Cc1ccc(O)cc1)C(=O)N1CCC[C@H]1C(=O)N[C@@H](CCCNC(=N)N)C(=O)N[C@H](C(=O)N[C@@H](CC(N)=O)C(=O)N[C@H](C(=O)NCC(=O)N[C@@H](CO)C(=O)N[C@@H](CC(N)=O)C(=O)N[C@H](C(=O)N[C@@H](Cc1ccc(O)cc1)C(N)=O)[C@@H](C)O)C(C)C)[C@@H](C)O)[C@@H](C)O)C(=O)O [Cmpd 193, [K^11ε(γ-Glu(Nα-C16-Chain))]-Cmpd 17] (H-KCNTATCALQK([γGlu-Palmitoyl])LAQELHRLQTYPRTNVGSNTY-NH2; disulfide 2-7 (inferred); N-terminus assumed)",Inactive
2,"CCCCCCCCCCCCCCCC(=O)N[C@@H](CCC(=O)NCCCC[C@H](N)C(=O)N[C@@H](CCCCN)C(=O)N[C@H]1CSSC[C@@H](C(=O)N[C@@H](C)C(=O)N[C@@H](CC(C)C)C(=O)N[C@@H](CCC(N)=O)C(=O)N[C@@H](CCCNC(=N)N)C(=O)N[C@@H](CC(C)C)C(=O)N[C@@H](C)C(=O)N[C@@H](CCC(N)=O)C(=O)N[C@@H](CCC(=O)O)C(=O)N[C@@H](CC(C)C)C(=O)N[C@@H](Cc2c[nH]cn2)C(=O)N[C@@H](CCCNC(=N)N)C(=O)N[C@@H](CC(C)C)C(=O)N[C@@H](CCC(N)=O)C(=O)N[C@H](C(=O)N[C@@H](Cc2ccc(O)cc2)C(=O)N2CCC[C@H]2C(=O)N[C@@H](CCCNC(=N)N)C(=O)N[C@H](C(=O)N[C@@H](CC(N)=O)C(=O)N[C@H](C(=O)NCC(=O)N[C@@H](CO)C(=O)N[C@@H](CC(N)=O)C(=O)N[C@H](C(=O)N[C@@H](Cc2ccc(O)cc2)C(N)=O)[C@@H](C)O)C(C)C)[C@@H](C)O)[C@@H](C)O)NC(=O)[C@H]([C@@H](C)O)NC(=O)[C@H](C)NC(=O)[C@H]([C@@H](C)O)NC(=O)[C@H](CC(N)=O)NC1=O)C(=O)O [Cmpd 195, Kε-(γ-Glu(Nα-C16-Chain))-Cmpd 17] (H-K([γGlu-Palmitoyl])KCNTATCALQRLAQELHRLQTYPRTNVGSNTY-NH2; disulfide 3-8; N-terminus assumed)",Active
3,"CCCCCCCCCCCCCCCC(=O)N[C@@H](CCC(=O)NCCCC[C@H](NC(=O)[C@H](CCC(N)=O)NC(=O)[C@H](CC(C)C)NC(=O)[C@H](CCCNC(=N)N)NC(=O)[C@H](Cc1c[nH]cn1)NC(=O)[C@H](CC(C)C)NC(=O)[C@H](CCC(=O)O)NC(=O)[C@H](CCC(N)=O)NC(=O)[C@H](C)NC(=O)[C@H](CC(C)C)NC(=O)[C@H](CCCNC(=N)N)NC(=O)[C@H](CCC(N)=O)NC(=O)[C@H](CC(C)C)NC(=O)[C@H](C)NC(=O)[C@@H]1CSSC[C@H](NC(=O)[C@@H](N)CCCCN)C(=O)N[C@@H](CC(N)=O)C(=O)N[C@@H]([C@@H](C)O)C(=O)N[C@@H](C)C(=O)N[C@@H]([C@@H](C)O)C(=O)N1)C(=O)N[C@@H](Cc1ccc(O)cc1)C(=O)N1CCC[C@H]1C(=O)N[C@@H](CCCNC(=N)N)C(=O)N[C@H](C(=O)N[C@@H](CC(N)=O)C(=O)N[C@H](C(=O)NCC(=O)N[C@@H](CO)C(=O)N[C@@H](CC(N)=O)C(=O)N[C@H](C(=O)N[C@@H](Cc1ccc(O)cc1)C(N)=O)[C@@H](C)O)C(C)C)[C@@H](C)O)C(=O)O [Cmpd 187, [K^21ε-(γ-Glu(Nα-C16-Chain))]-Cmpd 17] (H-KCNTATCALQRLAQELHRLQK([γGlu-Palmitoyl])YPRTNVGSNTY-NH2; disulfide 2-7 (inferred); N-terminus assumed)",Inactive
4,"CCCCCCCCCCCCCCCC(=O)N[C@@H](CCC(=O)NCCCC[C@H](NC(=O)[C@H](Cc1c[nH]cn1)NC(=O)[C@H](CC(C)C)NC(=O)[C@H](CCC(=O)O)NC(=O)[C@H](CCC(N)=O)NC(=O)[C@H](C)NC(=O)[C@H](CC(C)C)NC(=O)[C@H](CCCNC(=N)N)NC(=O)[C@H](CCC(N)=O)NC(=O)[C@H](CC(C)C)NC(=O)[C@H](C)NC(=O)[C@@H]1CSSC[C@H](NC(=O)[C@@H](N)CCCCN)C(=O)N[C@@H](CC(N)=O)C(=O)N[C@@H]([C@@H](C)O)C(=O)N[C@@H](C)C(=O)N[C@@H]([C@@H](C)O)C(=O)N1)C(=O)N[C@@H](CC(C)C)C(=O)N[C@@H](CCC(N)=O)C(=O)N[C@H](C(=O)N[C@@H](Cc1ccc(O)cc1)C(=O)N1CCC[C@H]1C(=O)N[C@@H](CCCNC(=N)N)C(=O)N[C@H](C(=O)N[C@@H](CC(N)=O)C(=O)N[C@H](C(=O)NCC(=O)N[C@@H](CO)C(=O)N[C@@H](CC(N)=O)C(=O)N[C@H](C(=O)N[C@@H](Cc1ccc(O)cc1)C(N)=O)[C@@H](C)O)C(C)C)[C@@H](C)O)[C@@H](C)O)C(=O)O [Cmpd 186, [K^18ε-(γ-Glu(Nα-C16-Chain))]-Cmpd 17] (H-KCNTATCALQRLAQELHK([γGlu-Palmitoyl])LQTYPRTNVGSNTY-NH2; disulfide 2-7 (inferred); N-terminus assumed)",Inactive
5,"CCCCCCCCCCCCCCCC(=O)N[C@@H](CCC(=O)NCCCC[C@H](N)C(=O)N[C@H]1CSSC[C@@H](C(=O)N[C@@H](C)C(=O)N[C@@H](CC(C)C)C(=O)N[C@@H](CCC(N)=O)C(=O)N[C@@H](CCCNC(=N)N)C(=O)N[C@@H](CC(C)C)C(=O)N[C@@H](C)C(=O)N[C@@H](CCC(N)=O)C(=O)N[C@@H](CCC(=O)O)C(=O)N[C@@H](CC(C)C)C(=O)N[C@@H](Cc2c[nH]cn2)C(=O)N[C@@H](CCCNC(=N)N)C(=O)N[C@@H](CC(C)C)C(=O)N[C@@H](CCC(N)=O)C(=O)N[C@H](C(=O)N[C@@H](Cc2ccc(O)cc2)C(=O)N2CCC[C@H]2C(=O)N[C@@H](CCCNC(=N)N)C(=O)N[C@H](C(=O)N[C@@H](CC(N)=O)C(=O)N[C@H](C(=O)NCC(=O)N[C@@H](CO)C(=O)N[C@@H](CC(N)=O)C(=O)N[C@H](C(=O)N[C@@H](Cc2ccc(O)cc2)C(N)=O)[C@@H](C)O)C(C)C)[C@@H](C)O)[C@@H](C)O)NC(=O)[C@H]([C@@H](C)O)NC(=O)[C@H](C)NC(=O)[C@H]([C@@H](C)O)NC(=O)[C@H](CC(N)=O)NC1=O)C(=O)O [Cmpd 192, [K^1ε-(γ-Glu(Nα-C16-Chain))]-Cmpd 17] (H-K([γGlu-Palmitoyl])CNTATCALQRLAQELHRLQTYPRTNVGSNTY-NH2; disulfide 2-7 (inferred); N-terminus assumed)",Active
6,"CCCCCCCCCCCCCCCC(=O)N[C@@H](CCC(=O)NCCCC[C@H](NC(=O)[C@@H]1CCCN1C(=O)[C@H](Cc1ccc(O)cc1)NC(=O)[C@@H](NC(=O)[C@H](CCC(N)=O)NC(=O)[C@H](CC(C)C)NC(=O)[C@H](CCCNC(=N)N)NC(=O)[C@H](Cc1c[nH]cn1)NC(=O)[C@H](CC(C)C)NC(=O)[C@H](CCC(=O)O)NC(=O)[C@H](CCC(N)=O)NC(=O)[C@H](C)NC(=O)[C@H](CC(C)C)NC(=O)[C@H](CCCNC(=N)N)NC(=O)[C@H](CCC(N)=O)NC(=O)[C@H](CC(C)C)NC(=O)[C@H](C)NC(=O)[C@@H]1CSSC[C@H](NC(=O)[C@@H](N)CCCCN)C(=O)N[C@@H](CC(N)=O)C(=O)N[C@@H]([C@@H](C)O)C(=O)N[C@@H](C)C(=O)N[C@@H]([C@@H](C)O)C(=O)N1)[C@@H](C)O)C(=O)N[C@H](C(=O)N[C@@H](CC(N)=O)C(=O)N[C@H](C(=O)NCC(=O)N[C@@H](CO)C(=O)N[C@@H](CC(N)=O)C(=O)N[C@H](C(=O)N[C@@H](Cc1ccc(O)cc1)C(N)=O)[C@@H](C)O)C(C)C)[C@@H](C)O)C(=O)O [Cmpd 188, [K^24ε-(γ-Glu(Nα-C16-Chain))]-Cmpd 17] (H-KCNTATCALQRLAQELHRLQTYPK([γGlu-Palmitoyl])TNVGSNTY-NH2; disulfide 2-7 (inferred); N-terminus assumed)",Inactive
